# Laboratory results published in patent US11440898B2, “Isoquinoline compounds, methods for their preparation, and therapeutic uses thereof in conditions associated with the alteration of the activity of beta galactosidase” (Minoryx Therapeutics S.L., priority 2016, dated 2022).
# Molecular target: T1, mutated beta-galactosidase (p.R60H canine GLB1) in GM11473 fibroblasts (Canis lupus familiaris, UniProt Q9TRY9, R60H)
# T1 construct: host or cells: GM11473 canine GM1 gangliosidosis fibroblasts
# T1 sequence (Q9TRY9 30-668 R60H): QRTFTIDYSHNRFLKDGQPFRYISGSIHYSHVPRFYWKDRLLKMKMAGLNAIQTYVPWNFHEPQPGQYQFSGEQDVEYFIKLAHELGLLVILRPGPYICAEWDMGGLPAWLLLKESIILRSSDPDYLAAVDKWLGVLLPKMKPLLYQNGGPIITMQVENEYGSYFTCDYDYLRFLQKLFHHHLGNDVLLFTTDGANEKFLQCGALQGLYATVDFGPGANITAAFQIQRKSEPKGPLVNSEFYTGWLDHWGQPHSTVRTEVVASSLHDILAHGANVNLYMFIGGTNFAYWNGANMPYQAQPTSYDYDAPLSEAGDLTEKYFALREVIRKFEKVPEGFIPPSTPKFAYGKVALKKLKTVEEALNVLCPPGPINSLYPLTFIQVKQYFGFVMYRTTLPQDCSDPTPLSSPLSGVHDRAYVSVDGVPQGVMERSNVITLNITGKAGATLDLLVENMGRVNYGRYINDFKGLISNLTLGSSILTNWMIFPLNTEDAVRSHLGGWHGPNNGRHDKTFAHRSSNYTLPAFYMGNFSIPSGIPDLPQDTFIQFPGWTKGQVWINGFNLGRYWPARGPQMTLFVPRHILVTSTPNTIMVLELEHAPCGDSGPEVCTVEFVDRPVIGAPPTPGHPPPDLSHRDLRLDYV
# Test: Enhancement of β-galactosidase activity measured in GM1 fibroblasts (GM11473), 4-MU-β-D-galactopyranoside substrate
# Assay type: cell-based
# Set-up: key: Increase in comparison with non-treated of >2.5 fold is shown as A; Increase in comparison with non-treated of >1.7-2.5 fold is shown as B; Increase in comparison with non-treated of 1.2-1.7 fold is shown as C; D means that no increase compared with non-treated cells was detected in this method
# Settings: increase in β-galactosidase enzyme activity vs non-treated cells, concentrations between 6 and 50 μM, 4 days incubation
# Procedure: The capacity of the Compounds of the Disclosure to enhance mutated beta-galactosidase activity levels in GM1 fibroblasts was assayed as follows.
# Fibroblasts homozygous for a GM1 gangliosidosis missense mutation (GM11473) (canine fibroblasts homozygous for the GM1 gangliosidosis missense mutation p.R60H equivalent to human p.R59H mutation) were purchased from Coriell Institute for Medical Research (Camden, N.J., USA).
# Fibroblasts were seeded at 4×10^4 cells per well in 12-well cell culture plates in Dulbecco's Modified Eagle's Media (DMEM) supplemented with 10% of fetal bovine serum (FBS), 1% penicillin/streptomycin (P/S) (Thermo Fisher Scientific, Waltham, Mass., USA) and incubated at 37° C., 5% CO2 overnight for cell attachment. Subsequently, cells were incubated in the absence or presence of the compounds at the desired concentration for 4 days. After incubation, cells were washed twice with phosphate-buffered saline (“PBS”) and detached using Trypsin-EDTA solution (Sigma Aldrich, St. Louis, Mo., USA) to prepare cell pellets. The pellets were stored at −80° C. until activity assays were performed.
# β-Galactosidase activity in cell lysates was measured by using 4-Methylumbelliferyl-β-D-galactopyranoside substrate (Sigma Aldrich, St. Louis, Mo., USA). Briefly, lysates were resuspended in 200 μL of 0.9% NaCl containing 0.01% triton X-100 lysis buffer to promote membrane disruption. The cell suspension was sonicated and centrifuged to remove insoluble materials. Then, lysates were mixed with 4-MU-β-D-galactopyranoside in 100 mM citrate buffer (pH=4) and 100 mM NaCl for 60 min at 37° C. The reaction was terminated by adding 100 mM glycine-NaOH buffer (pH=10.7). The liberated 4-MU was measured on a GloMax Discover plate reader (Promega, Madison, Wis., USA) with excitation at 340 nm and emission at 460 nm. Protein quantification was determined using Pierce BCA Protein Assay Kit (Thermo Fisher Scientific, Waltham, Mass., USA). Measurements were interpolated in a 4-MU standard curve and normalized by protein quantity. Enzyme activities were expressed in treated cells as X-fold increase in comparison with non-treated cells (X=1 represents no enhancement).
# The capacity of the Compounds of the Disclosure to produce an increase in β-galactosidase enzyme activity in canine GM1 fibroblasts bearing p.R60H canine GLB1 mutation at concentrations between 6 and 50 μM is denoted as follows: • Increase in comparison with non-treated of >2.5 fold is shown as A. • Increase in comparison with non-treated of >1.7-2.5 fold is shown as B. • Increase in comparison with non-treated of 1.2-1.7 fold is shown as C. • D means that no increase compared with non-treated cells was detected in this method. • ND means “not determined.”
row,Structure (SMILES),Activity in GM11473 fibroblasts
1,"O=C(NCc1ccccc1)c1ccc(Nc2nccc3ccc(Cl)cc23)cn1 [Example 29, N-benzyl-5-((7-chloroisoquinolin-1-yl)amino)picolinamide]",A (Increase in comparison with non-treated of >2.5 fold is shown as A)
2,"O=S(=O)(NCc1ccc2c(c1)OCCO2)c1cccc(Nc2nccc3ccc(Cl)cc23)c1 [Example 69, 3-((7-Chloroisoquinolin-1-yl)amino)-N-((2,3-dihydrobenzo[b][1,4]dioxin-6-yl)methyl)benzenesulfonamide]",D
3,"O=C(NCCc1ccc2c(c1)OCCO2)c1cc(Nc2nccc3ccc(Cl)cc23)ccn1 [Example 18, 4-((7-Chloroisoquinolin-1-yl)amino)-N-(2-(2,3-dihydrobenzo[b][1,4]dioxin-6-yl)ethyl)picolinamide]",C (Increase in comparison with non-treated of 1.2-1.7 fold is shown as C)
4,"O=C(NCC1CCc2ccccc2C1)c1cc(Nc2nccc3ccc(Cl)cc23)ccn1 (stereo not shown) [Example 20, 4-((7-Chloroisoquinolin-1-yl)amino)-N-((1,2,3,4-tetrahydronaphthalen-2-yl)methyl)picolinamide]",B (Increase in comparison with non-treated of >1.7-2.5 fold is shown as B)
5,"O=C(NCC(c1ccccn1)N1CCOCC1)c1cccc(Nc2nccc3ccc(Cl)cc23)c1 (stereo not shown) [Example 2, 3-((7-Chloroisoquinolin-1-yl)amino)-N-(2-morpholino-2-(pyridin-2-yl)ethyl)benzamide]",C (Increase in comparison with non-treated of 1.2-1.7 fold is shown as C)
6,"COc1ccc2ccnc(Nc3ccc(C(=O)NC4CCc5ccccc5C4)nc3)c2c1 (stereo not shown) [Example 45, 5-((7-Methoxyisoquinolin-1-yl)amino)-N-(1,2,3,4-tetrahydronaphthalen-2-yl)picolinamide]",C (Increase in comparison with non-treated of 1.2-1.7 fold is shown as C)
7,"O=C(NCc1ccc2c(c1)CCO2)c1cc(Nc2nccc3ccc(Cl)cc23)ccn1 [Example 16, 4-((7-Chloroisoquinolin-1-yl)amino)-N-((2,3-dihydrobenzofuran-5-yl)methyl)picolinamide]",C (Increase in comparison with non-treated of 1.2-1.7 fold is shown as C)
8,"COc1ccc2c(c1)CCC(NC(=O)c1ccc(Nc3nccc4ccc(OC)cc34)cn1)C2 (stereo not shown) [Example 46, N-(6-methoxy-1,2,3,4-tetrahydronaphthalen-2-yl)-5-((7-methoxyisoquinolin-1-yl)amino)picolinamide]",C (Increase in comparison with non-treated of 1.2-1.7 fold is shown as C)
9,"O=S(=O)(NCc1ccc2c(c1)OCCO2)c1ccc(Nc2nccc3ccc(Cl)cc23)cc1 [Example 75, 4-((7-chloroisoquinolin-1-yl)amino)-N-((2,3-dihydrobenzo[b][1,4]dioxin-6-yl)methyl)benzenesulfonamide]",B (Increase in comparison with non-treated of >1.7-2.5 fold is shown as B)
10,"O=C(NC1CCc2ccccc2C1)c1ccc(Nc2nccc3ccc(Cl)cc23)cn1 (stereo not shown) [Example 34, 5-((7-Chloroisoquinolin-1-yl)amino)-N-(1,2,3,4-tetrahydronaphthalen-2-yl)picolinamide]",A (Increase in comparison with non-treated of >2.5 fold is shown as A)
11,"COc1cccc(CNC(=O)c2ccc(Nc3nccc4ccc(Cl)cc34)nc2)c1 [Example 57, 6-((7-Chloroisoquinolin-1-yl)amino)-N-(3-methoxybenzyl)nicotinamide]",C (Increase in comparison with non-treated of 1.2-1.7 fold is shown as C)
12,"O=C(NCC(c1cccnc1)N1CCCC1)c1cc(Nc2nccc3ccc(Cl)cc23)ccn1 (stereo not shown) [Example 7, 4-((7-Chloroisoquinolin-1-yl)amino)-N-(2-(pyridin-3-yl)-2-(pyrrolidin-1-yl)ethyl)picolinamide]",C (Increase in comparison with non-treated of 1.2-1.7 fold is shown as C)
13,"COc1ccc(CNC(=O)c2cc(Nc3nccc4ccc(Cl)cc34)ccn2)cc1 [Example 10, 4-((7-Chloroisoquinolin-1-yl)amino)-N-(4-methoxybenzyl)picolinamide]",D
14,"Cn1nnc2cc(CNS(=O)(=O)c3cccc(Nc4nccc5ccc(Cl)cc45)c3)ccc21 [Example 71, 3-((7-Chloroisoquinolin-1-yl)amino)-N-((1-methyl-1H-benzo[d][1,2,3]triazol-5-yl)methyl)benzenesulfonamide]",C (Increase in comparison with non-treated of 1.2-1.7 fold is shown as C)
15,"O=C(NCc1ccc2nsnc2c1)c1cc(Nc2nccc3ccc(Cl)cc23)ccn1 [Example 13, N-(benzo[c][1,2,5]thiadiazol-5-ylmethyl)-4-((7-chloroisoquinolin-1-yl)amino)picolinamide]",D
16,"O=C(NCc1ccc2c(c1)OCCCO2)c1cc(Nc2nccc3ccc(Cl)cc23)ccn1 [Example 15, 4-((7-Chloroisoquinolin-1-yl)amino)-N-((3,4-dihydro-2H-benzo[b][1,4]dioxepin-7-yl)methyl)picolinamide]",D
17,"Cn1nnc2c(NS(=O)(=O)c3cccc(Nc4nccc5ccc(Cl)cc45)c3)cccc21 [Example 67, 3-((7-Chloroisoquinolin-1-yl)amino)-N-(1-methyl-1H-benzo[d][1,2,3]triazol-4-yl)benzenesulfonamide]",C (Increase in comparison with non-treated of 1.2-1.7 fold is shown as C)
18,"O=C(NCc1ccc2c(c1)OCO2)c1ccc(Nc2nccc3ccc(Cl)cc23)nc1 [Example 62, N-(benzo[d][1,3]dioxol-5-ylmethyl)-6-((7-chloroisoquinolin-1-yl)amino)nicotinamide]",D
19,"O=S(=O)(NCC(c1ccccn1)N1CCOCC1)c1cccc(Nc2nccc3ccc(Cl)cc23)c1 (stereo not shown) [Example 66, 3-((7-Chloroisoquinolin-1-yl)amino)-N-(2-morpholino-2-(pyridin-2-yl)ethyl)benzenesulfonamide]",C (Increase in comparison with non-treated of 1.2-1.7 fold is shown as C)
20,"O=C(NCc1ccc2nsnc2c1)c1ccc(Nc2nccc3ccc(Cl)cc23)nc1 [Example 59, N-(benzo[c][1,2,5]thiadiazol-5-ylmethyl)-6-((7-chloroisoquinolin-1-yl)amino)nicotinamide]",C (Increase in comparison with non-treated of 1.2-1.7 fold is shown as C)
21,"O=S(=O)(NCC1CCc2ccccc2C1)c1ccc(Nc2nccc3ccc(Cl)cc23)cc1 (stereo not shown) [Example 78, 4-((7-Chloroisoquinolin-1-yl)amino)-N-((1,2,3,4-tetrahydronaphthalen-2-yl)methyl)benzenesulfonamide]",A (Increase in comparison with non-treated of >2.5 fold is shown as A)
22,"O=C(NC1CCc2ccccc2C1)c1cc(Nc2nccc3ccc(Cl)cc23)ccn1 (stereo not shown) [Example 14, 4-((7-Chloroisoquinolin-1-yl)amino)-N-(1,2,3,4-tetrahydronaphthalen-2-yl)picolinamide]",B (Increase in comparison with non-treated of >1.7-2.5 fold is shown as B)
